Test results reported in ChEMBL document CHEMBL3751696, “Mollisolactones A and B, novel dinormonoterpenes from the soft coral Sinularia mollis” (2016).
Converted amounts (≈) assume the structure as drawn. The source made the active and inactive calls. The calls are words filed in the database; no cut-off is given here.

Columns and labels:
A549 = assay: Cytotoxicity against human A549 cells by MTT assay; format: functional; settings: read-out: ED50 (the source's name)
P388 = assay: Cytotoxicity against mouse P388 cells by MTT assay; format: functional; settings: read-out: ED50 (the source's name)
Human betaherpesvirus 5 = assay: Antiviral activity against Human cytomegalovirus at 50 ug/ml; format: functional, organism-based
HT-29 = assay: Cytotoxicity against human HT-29 cells by MTT assay; format: functional; settings: read-out: ED50 (the source's name)

Row | Compound | EC50 (A549) | EC50 (P388) | Activity (Human betaherpesvirus 5) | EC50 (HT-29)
1 | CC(=O)CC1OC(=O)C=C1C (stereo not drawn) | 53 µg/mL (≈ 344 µM) | 56 µg/mL (≈ 363 µM) | inactive | 51 µg/mL (≈ 331 µM)
2 | CC(=O)CC1C=C(C)C(=O)O1 (stereo not drawn) | 56 µg/mL (≈ 363 µM) | 52 µg/mL (≈ 337 µM) | inactive | 58 µg/mL (≈ 376 µM)
